# Assays:
# [1] = compound: C1CC(C1)(C(=O)[O-])C(=O)[O-].N.N.[Pt+2] [Carboplatin]; conditions: max 10 µM
# How it was run: (§1)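 Plates with 1536 wells received cancer cell lines in 7.5 μl of DMEM/F12 or RPMI containing 10% FBS. After 24 hours at 37°C and 5% CO2, cells were dosed for 72 hours with final DMSO typically 0.2%, and viability was read by CellTiter-Glo 2.0 luminescence scaled between blank-well and DMSO-well means. The single-agent IC50 was taken from a logistic fit of the dose responses made with a non-linear mixed effects model, that logistic curve having two parameters.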
# [2] = compound: C1CN(CCC1(C(=O)N[C@@H](CCO)C2=CC=C(C=C2)Cl)N)C3=NC=NC4=C3C=CN4 [AZD5363]; conditions: max 10 µM
# How it was run: as §1
# [3] = compound: C=CCn1c(=O)c2cnc(Nc3ccc(N4CCN(C)CC4)cc3)nc2n1-c1cccc(C(C)(C)O)n1 [AZD1775]; conditions: max 3 µM
# How it was run: as §1
# [4] = compound: CC(=O)Nc1cccc(-n2c(=O)n(C3CC3)c(=O)c3c(Nc4ccc(I)cc4F)n(C)c(=O)c(C)c32)c1 [Trametinib]; conditions: max 1 µM
# How it was run: as §1
# [5] = compound: CC(=O)O[C@H]1C(=O)[C@@]2(C)[C@H]([C@H](OC(=O)c3ccccc3)[C@]3(O)C[C@H](OC(=O)[C@H](O)[C@@H](NC(=O)c4ccccc4)c4ccccc4)C(C)=C1C3(C)C)[C@]1(OC(C)=O)CO[C@@H]1C[C@@H]2O [Paclitaxel]; conditions: max 3 µM
# How it was run: as §1
# [6] = compound: CC(=O)c1c(C)c2cnc(Nc3ccc(N4CCNCC4)cn3)nc2n(C2CCCC2)c1=O [Palbociclib]; conditions: max 10 µM
# How it was run: as §1
# [7] = compound: CC(C)n1c(=O)n(C)c2cnc3cc(F)c(-c4ccc(OCCCN5CCCCC5)nc4)cc3c21 [AZD1390]; conditions: max 0.3 µM
# How it was run: as §1
# [8] = compound: CC1(C)CCC(CN2CCN(c3ccc(C(=O)NS(=O)(=O)c4ccc(NCC5CCOCC5)c([N+](=O)[O-])c4)c(Oc4cnc5[nH]ccc5c4)c3)CC2)=C(c2ccc(Cl)cc2)C1 [Venetoclax]; conditions: max 1 µM
# How it was run: as §1
# [9] = compound: CC1=C(C(=CC=C1)Cl)NC(=O)C2=CN=C(S2)NC3=CC(=NC(=N3)C)N4CCN(CC4)CCO [Dasatinib]; conditions: max 2 µM
# How it was run: as §1
# [10] = compound: CC1=CN2[C@@H](C1)C=NC3=CC(=C(C=C3C2=O)OC)OCCCCCOC4=C(C=C5C(=C4)N=C[C@@H]6CC(=CN6C5=O)C)OC [SG3199]; conditions: max 0.001 µM
# How it was run: as §1
# [11] = compound: CCN(CCO)CCCOc1ccc2c(Nc3cc(CC(=O)Nc4cccc(F)c4)[nH]n3)ncnc2c1 [AZD2811]; conditions: max 1 µM
# How it was run: as §1
# [12] = compound: CCc1c2c(nc3ccc(O)cc13)-c1cc3c(c(=O)n1C2)COC(=O)[C@]3(O)CC [SN-38]; conditions: max 0.3 µM
# How it was run: as §1
# [13] = compound: CN(C)CCCOc1ccc(-c2ccc3ncc4c(c3c2)n(C2CCOCC2)c(=O)n4C)cn1 [AZD0156]; conditions: max 3 µM
# How it was run: as §1
# [14] = compound: CN(CC[C@H](CSC1=CC=CC=C1)NC2=C(C=C(C=C2)S(=O)(=O)NC(=O)C3=CC=C(C=C3)N4CCC(CC4)[C@H](C5=CC=CC=C5C6=CC=C(C=C6)Cl)O)S(=O)(=O)C(F)(F)F)CCO [AZD4320]; conditions: max 1 µM
# How it was run: as §1
# [15] = compound: COc1cc(Nc2ncc3c(n2)-c2ccc(Cl)cc2C(c2c(F)cccc2OC)=NC3)ccc1C(=O)O [Alisertib]; conditions: max 10 µM
# How it was run: as §1
# [16] = compound: COc1cc([C@@H]2c3cc4c(cc3[C@@H](O[C@@H]3O[C@@H]5CO[C@@H](C)O[C@H]5[C@H](O)[C@H]3O)[C@H]3COC(=O)[C@H]23)OCO4)cc(OC)c1O [Etoposide]; conditions: max 10 µM
# How it was run: as §1
# [17] = compound: COc1cc2ncnc(Nc3ccc(F)c(Cl)c3)c2cc1OCCCN1CCOCC1 [Gefitinib]; conditions: max 10 µM
# How it was run: as §1
# [18] = compound: COc1cccc(OCCCN)c1-c1cc(Nc2cnc(C#N)cn2)n[nH]1 [Prexasertib]; conditions: max 1 µM
# How it was run: as §1
# [19] = compound: COc1cccc2c1C(=O)c1c(O)c3c(c(O)c1C2=O)C[C@@](O)(C(=O)CO)C[C@@H]3O[C@H]1C[C@H](N)[C@H](O)[C@H](C)O1 [Doxorubicin]; conditions: max 1 µM
# How it was run: as §1
# [20] = compound: COc1nnc2ccc(N3CCC(c4ccc(OCCN5CCN(C)C(=O)[C@H]5C)cc4)CC3)nn12 [AZD5153]; conditions: max 1 µM
# How it was run: as §1
# [21] = compound: CS(=O)(=O)CCNCc1ccc(-c2ccc3ncnc(Nc4ccc(OCc5cccc(F)c5)c(Cl)c4)c3c2)o1 [Lapatinib]; conditions: max 10 µM
# How it was run: as §1
# [22] = compound: C[C@@H](Nc1cc(F)cc(F)c1)c1cc(C(=O)N(C)C)cc2c(=O)cc(N3CCOCC3)oc12 [AZD8186]; conditions: max 10 µM
# How it was run: as §1
# [23] = compound: C[C@@H](Oc1cc(-c2cnn(C3CCNCC3)c2)cnc1N)c1c(Cl)ccc(F)c1Cl [Crizotinib]; conditions: max 10 µM
# How it was run: as §1
# [24] = compound: C[C@@H](c1ccc2nccn2c1)n1nnc2ncc(-c3cnn(C)c3)nc21 [Savolitinib]; conditions: max 1 µM
# How it was run: as §1
# [25] = compound: C[C@@H]1COCCN1C2=NC(=NC(=C2)C3(CC3)[S@](=N)(=O)C)C4=C5C=CNC5=NC=C4 [AZD6738]; conditions: max 10 µM
# How it was run: as §1
# [26] = compound: Cc1c2c(nn1C)CSCc1cc(n(C)n1)CSc1cc(c3ccccc3c1)OCCCc1c(C(=O)O)n(C)c3c-2c(Cl)ccc13 [AZD5991]; conditions: max 1 µM
# How it was run: as §1
# [27] = compound: Cc1cc2ncnn2cc1Nc1ncc2c(n1)n(C1CCOCC1)c(=O)n2C [AZD7648]; conditions: max 10 µM
# How it was run: as §1
# [28] = compound: Cc1nc(-c2cn3c(n2)-c2ccc(-c4cnn(C(C)(C)C(N)=O)c4)cc2OCC3)n(C(C)C)n1 [Taselisib]; conditions: max 10 µM
# How it was run: as §1
# [29] = compound: Cn1cnc2c(F)c(Nc3ccc(Br)cc3Cl)c(C(=O)NOCCO)cc21 [Selumetinib]; conditions: max 10 µM
# How it was run: as §1
# [30] = compound: N#Cc1cnc(Nc2cc(NC[C@H]3CNCCO3)c(C(F)(F)F)cn2)cn1 [SRA737]; conditions: max 10 µM
# How it was run: as §1
# [31] = compound: NC1(c2ccc(-c3nc4ccn5c(=O)[nH]nc5c4cc3-c3ccccc3)cc2)CCC1 [MK-2206]; conditions: max 10 µM
# How it was run: as §1
# [32] = compound: Nc1ccn([C@@H]2O[C@H](CO)[C@@H](O)C2(F)F)c(=O)n1 [Gemcitabine]; conditions: max 0.3 µM
# How it was run: as §1
# [33] = compound: O=C(Nc1ccc2[nH]nc(-c3ccncc3)c2c1)[C@@H]1CCN(CC(=O)N2CCN(c3ccc(-c4ncccn4)cc3)CC2)C1; conditions: max 5 µM
# How it was run: as §1
# [34] = compound: O=C(c1cc(Cc2n[nH]c(=O)c3ccccc23)ccc1F)N1CCN(C(=O)C2CC2)CC1 [Olaparib]; conditions: max 10 µM
# How it was run: as §1
# [35] = compound: O=c1[nH]cc(F)c(=O)[nH]1 [5-Fluorouracil]; conditions: max 20 µM
# How it was run: as §1
Cell Line,"IC50, cell viability 72 h [1]","IC50, cell viability 72 h [2]","IC50, cell viability 72 h [3]","IC50, cell viability 72 h [4]","IC50, cell viability 72 h [5]","IC50, cell viability 72 h [6]","IC50, cell viability 72 h [7]","IC50, cell viability 72 h [8]","IC50, cell viability 72 h [9]","IC50, cell viability 72 h [10]","IC50, cell viability 72 h [11]","IC50, cell viability 72 h [12]","IC50, cell viability 72 h [13]","IC50, cell viability 72 h [14]","IC50, cell viability 72 h [15]","IC50, cell viability 72 h [16]","IC50, cell viability 72 h [17]","IC50, cell viability 72 h [18]","IC50, cell viability 72 h [19]","IC50, cell viability 72 h [20]","IC50, cell viability 72 h [21]","IC50, cell viability 72 h [22]","IC50, cell viability 72 h [23]","IC50, cell viability 72 h [24]","IC50, cell viability 72 h [25]","IC50, cell viability 72 h [26]","IC50, cell viability 72 h [27]","IC50, cell viability 72 h [28]","IC50, cell viability 72 h [29]","IC50, cell viability 72 h [30]","IC50, cell viability 72 h [31]","IC50, cell viability 72 h [32]","IC50, cell viability 72 h [33]","IC50, cell viability 72 h [34]","IC50, cell viability 72 h [35]"
LC4-1 (B-Lymphoblastic Leukemia),> 10000 nM,> 10000 nM,269 nM,> 1000 nM,6.82 nM,4230 nM,> 300 nM,3.63 nM,> 2000 nM,> 1 nM,11.1 nM,2.26 nM,> 3000 nM,2.54 nM,529 nM,355 nM,> 10000 nM,11.8 nM,83.3 nM,74.3 nM,6110 nM,> 10000 nM,3000 nM,> 1000 nM,1280 nM,220 nM,> 10000 nM,> 10000 nM,> 10000 nM,3640 nM,> 10000 nM,30.9 nM,3950 nM,> 10000 nM,9630 nM
OCUB-M (Breast Carcinoma),> 10000 nM,429 nM,> 3000 nM,> 1000 nM,9.26 nM,> 10000 nM,> 300 nM,> 1000 nM,> 2000 nM,> 1 nM,73.4 nM,49.2 nM,> 3000 nM,878 nM,2810 nM,634 nM,> 10000 nM,463 nM,241 nM,> 1000 nM,4790 nM,> 10000 nM,> 10000 nM,> 1000 nM,> 10000 nM,104 nM,> 10000 nM,109 nM,> 10000 nM,> 10000 nM,1220 nM,91.1 nM,> 5000 nM,> 10000 nM,> 20000 nM
SCC-9 (Oral Cavity Carcinoma),> 10000 nM,> 10000 nM,2830 nM,> 1000 nM,284 nM,> 10000 nM,> 300 nM,> 1000 nM,1150 nM,> 1 nM,> 1000 nM,> 300 nM,> 3000 nM,> 1000 nM,> 10000 nM,> 10000 nM,> 10000 nM,> 1000 nM,> 1000 nM,> 1000 nM,5060 nM,> 10000 nM,> 10000 nM,> 1000 nM,> 10000 nM,> 1000 nM,> 10000 nM,2140 nM,> 10000 nM,> 10000 nM,> 10000 nM,> 300 nM,> 5000 nM,> 10000 nM,> 20000 nM
GI-1 (Glioblastoma),> 10000 nM,7330 nM,755 nM,> 1000 nM,10.2 nM,> 10000 nM,> 300 nM,> 1000 nM,> 2000 nM,> 1 nM,> 1000 nM,9.55 nM,> 3000 nM,> 1000 nM,> 10000 nM,4030 nM,> 10000 nM,17.8 nM,670 nM,303 nM,> 10000 nM,9590 nM,5430 nM,> 1000 nM,2100 nM,737 nM,> 10000 nM,3040 nM,> 10000 nM,3870 nM,> 10000 nM,53.3 nM,> 5000 nM,> 10000 nM,> 20000 nM
OCUM-1 (Gastric Carcinoma),> 10000 nM,8900 nM,1510 nM,1.85 nM,2620 nM,> 10000 nM,> 300 nM,> 1000 nM,> 2000 nM,> 1 nM,> 1000 nM,48.6 nM,> 3000 nM,571 nM,> 10000 nM,> 10000 nM,> 10000 nM,78.1 nM,> 1000 nM,645 nM,> 10000 nM,> 10000 nM,> 10000 nM,> 1000 nM,2950 nM,> 1000 nM,> 10000 nM,> 10000 nM,63 nM,> 10000 nM,> 10000 nM,110 nM,35.9 nM,> 10000 nM,> 20000 nM
